In US10407445B2, “Hepatitis C virus inhibitors” (ENANTA PHARMACEUTICALS, INC., priority 2013, dated 2019):

Columns and labels:
[1] = tested on: GT1a replicon encoding NS5A mutation Y93H; assay: Transient replication assay, GT1a replicon with NS5A mutation Y93H; format: cell-based; settings: Hepatitis C virus, read-out: EC50 1a Y93H
[2] = tested on: GT1a replicon encoding NS5A mutation M28T; assay: Transient replication assay, GT1a replicon with NS5A mutation M28T; format: cell-based; settings: Hepatitis C virus, read-out: EC50 1a M28T
[3] = IV and PO single dose pharmacokinetic studies in SD rats; format: in vivo; settings: Sprague-Dawley, rat, plasma, male SD rats, oral gavage 20 mg/kg vs IV bolus 2 mg/kg
Description: The pharmacokinetics of selected compounds was characterized in male Sprague-Dawley (SD) rats (250-300 g). […] The intravenous (IV) dosing vehicle was 5% ethanol and 95% of 20% 2-hydroxypropyl β-cyclodextrin in water. The oral dosing vehicle was 33% of Microemulsion Preconcentrate #5 (a lipid based self-emulsifying drug delivery system, SEDDS) and 67% of 50 mM citrate buffer (final pH 3.6).
Serial blood samples (approximately 0.3 mL each) were collected from jugular vein or other suitable vein at specified time points. For the IV dosing group, the blood samples were collected predose and at 0.08, 0.25, 0.50, 1, 3, 6, 8, and 24 hours after the start of dosing. For the oral group, the blood samples were collected predose and at 0.08, 0.25, 0.50, 1, 3, 6, 8, and 24 hours after dosing. The blood samples were collected into VACUTAINER™ tubes containing EDTA-K3 as the anti-coagulant and were centrifuged at approximately 4° C. to obtain plasma. The plasma samples were stored at −20° C. until analysis by LC/MS/MS.
A bioanalytical method utilizing high performance liquid chromatography coupled to tandem mass spectrometry (LC/MS/MS) was developed for analysis of the selected compound in rat plasma. Detection was performed using multiple reaction monitoring (MRM); Ions representing the precursor (M+H)^+ species was selected in quadrupole 1 (Q1) and collided with nitrogen gas in the collision cell (Q2) to generate specific product ion, which was subsequently monitored by quadrupole 3 (Q3). Standard curve and quality control samples were prepared in male rat plasma and processed in the same way as the test samples to generate quantitative data.
Pharmacokinetic parameters were generated using non-compartmental pharmacokinetic analysis (Phoenix WinNonlin, version 6.3). Values below the lower limit of quantification (LLOQ) were assigned a value of zero if predose and treated as missing thereafter. Area under the curve (AUC) was calculated using the linear trapezoidal rule. The oral bioavailability (% F) was determined by comparison of the area under the curve (AUC) of the compound in plasma following oral administration to that generated following intravenous administration.

HCV GT 2a-J6 replicon = assay: HCV replicon assay, GT2a chimeric replicon expressing NS5A from GT2a strain J6; format: cell-based; settings: Hepatitis C virus, 72 h, read-out: EC50 2a J6
Description: The activity of compounds was determined against HCV replicons representing genotypes (GT) 1a, 1b, 2a, and 3a. To generate stable Huh-7.5-based cell lines, HCV replicons were engineered to express the Renilla luciferase reporter (hRluc) fused to the neomycin phosphotransferase (Neo) gene. GT2a and GT3a HCV replicons were based on the JFH-1 subgenomic replicon (Kato et al. 2003 Gastroenterology, 125:1808-1817), in which the NS5A gene was replaced with that of strains J6 and S52 (GT2a and G3a, respectively). The activity of compounds against GT1a replicons encoding NS5A mutations (M28T, Q30R, L31M, Y93C, and Y93H) was also determined in a transient replication assay. The parental GT1a and GT2a replicons (pH/SG-Neo(L+I) and pSG-Neo-JFH1, respectively) were licensed from Apath LLC (Saint Louis, Mo.). The parental GT 1b replicon (pFKi389lucubineo_3_3′_ET) was licensed from ReBLikon GmbH (Germany). HCV replicons were constructed by standard molecular biology techniques described below. All replicon constructs were verified by restriction enzyme digestion and DNA sequencing.
The plasmid pSG-hRlucNeo-JFH1 was generated from pSG-Neo-JFH1 (Kato et al. 2003, Gastroentrology 125:1808-1817). A fragment containing the JFH-1 5′ NTR—hRluc-Neo gene and two unique restriction sites (AgeI and PmeI) was synthesized (Integrated DNA Technologies, Coralville, Iowa). The resulting synthetic plasmid was digested with AgeI and PmeI and the excised fragment (5′NTR-hRluc-Neo) was ligated into pSG-Neo-JFH1 digested with the same enzymes to generate pSG-hRlucNeo-JFH1. To allow expression of heterologous NS5A sequences, an NS5A shuttle vector was generated from pSG-Neo-JFH1, in which the entire coding sequence of NS5A plus the first eight codons of NS5B were replaced with an AfeI restriction site. This was done by Infusion cloning (Clontech, Mountain View, Calif.) from two PCR products that were generated using pSG-Neo-JFH1 as a template and the following primer pairs:
Underlined sequences denote regions of overlap necessary for Infusion cloning. Purified PCR products were cloned directly into an NsiI/SnaBI digested pSG-Neo-JFH1 following the manufacturer's instructions to generate pSG-Neo-JFH1-5Ashuttle. The 2023 base pair AgeI/PmeI fragment from pSG-hRlucNeo-JFH1 was then ligated into pSG-Neo-JFH1-5Ashuttle to generate pSG-hRlucNeo-JFH1-5Ashuttle. To generate the 2a-2a-(J6) and 2a-3a-(S52) NS5A chimeric replicons, the full length NS5A sequences from GT2a strain J6 (accession AF177036) and GT3a strain S52 (accession GU814263), with the addition of the first eight codons of JFH-1 NS5B (5′-TCCATGTCATACTCCTGGACCGGG-3′), were synthesized by GeneArt (Life Technologies, Carlsbad Calif.). J6 and S52 NS5A sequences were then PCR amplified from the synthetic clones using the appropriate forward primer:
Underlined sequences denote regions of overlap with pSG-hRlucNeo-JFH1-5Ashuttle necessary for Infusion cloning. Purified PCR products were directly cloned into AfeI-digested shuttle vector by Infusion cloning following the manufacturer's instructions.
Stable HCV replicon cell lines were grown in complete media (Dulbecco's modified Eagle medium [DMEM], 2 mM L-glutamine, 0.1 mM essential amino acids, 1 mM sodium pyruvate, 10% heat inactivated fetal bovine serum) with the addition 500 μg/ml […] (G418). Huh7-lunet cells were maintained in the same medium without the addition of G418. Cells were routinely passaged at a dilution of 1:4 two times a week. The assay medium for both luciferase reporter HCV replicon and cytotoxicity assays used phenol red-free DMEM and lacked G418. For each stable replicon assay, a sixteen point half-log dilution series of compound was stamped (0.5 ul compound per well) into three replica 384-well plates, to which cells were added directly (4000 cells/well). […]

| Structure (SMILES) | EC50 [1] [pM] | EC50 [2] [pM] | bioavailability [3] [%] | EC50 (HCV GT 2a-J6 replicon) [pM] |
| --- | --- | --- | --- | --- |
| COC(=O)N[C@H](C(=O)N1CCC[C@H]1c1ncc(-c2ccc(-c3ccc4c(ccc5nc([C@@H]6C[C@]7(CCOC7)CN6C(=O)[C@@H](NC(=O)OC)C(C)C)[nH]c54)c3)cc2)[nH]1)C(C)C [Compound 51] | 4000 | 100 | 8.6 | 4000 |
| COC(=O)N[C@H](C(=O)N1CC2(CC2)C[C@H]1c1ncc(-c2ccc(-c3ccc4c(ccc5nc([C@@H]6C[C@@]7(CCCOC7)CN6C(=O)[C@@H](NC(=O)OC)C(C)C)[nH]c54)c3)cc2)[nH]1)C(C)C [Compound 8] | 4000 | 60 | 4.1 | 8000 |
| COC(=O)N[C@H](C(=O)N1C[C@]2(CCCOC2)C[C@H]1c1ncc(-c2ccc(-c3ccc4c(ccc5nc([C@@H]6C[C@@H]7CCCC[C@@H]7N6C(=O)[C@@H](NC(=O)OC)C(C)C)[nH]c54)c3)cc2)[nH]1)C(C)C [Compound 29] | 7000 | 20 | 17.1 | 2000 |
| COC(=O)N[C@H](C(=O)N1C[C@]2(CCCOC2)C[C@H]1c1ncc(-c2ccc(-c3ccc4c(ccc5nc([C@@H]6CCCN6C(=O)[C@@H](NC(=O)OC)C(C)C)[nH]c54)c3)cc2)[nH]1)C(C)C [Compound 47] | 8000 | 200 | 7 | 600 |
| COC(=O)N[C@H](C(=O)N1C[C@]2(CCCOC2)C[C@H]1c1nc2ccc3cc(-c4ccc5c(ccc6nc([C@@H]7C[C@@H]8CCC[C@@H]8N7C(=O)[C@@H](NC(=O)OC)C(C)C)[nH]c65)c4)ccc3c2[nH]1)C(C)C [Compound 9] | 2000 | 30 | 2.6 | 40 |
| COC(=O)N[C@H](C(=O)N1C[C@]2(CCCOC2)C[C@H]1c1nc2ccc3cc(-c4ccc5c(ccc6nc([C@@H]7C[C@@H]8C[C@@H]8N7C(=O)[C@@H](NC(=O)OC)C(C)C)[nH]c65)c4)ccc3c2[nH]1)C(C)C [Compound 21] | 4000 | 200 | 3.4 | 2000 |
| COC(=O)N[C@H](C(=O)N1C[C@]2(CCCOC2)C[C@H]1c1ncc(-c2ccc(-c3ccc4c(ccc5nc([C@@H]6C[C@@H]7COC[C@@H]7N6C(=O)[C@@H](NC(=O)OC)C(C)C)[nH]c54)c3)cc2)[nH]1)C(C)C [Compound 35] | 26000 | 200 | 1.1 | 2000 |
| COC(=O)N[C@H](C(=O)N1C[C@]2(CCCOC2)C[C@H]1c1ncc(-c2ccc(-c3ccc(-c4cnc([C@@H]5C[C@@H]6CCC[C@@H]6N5C(=O)[C@@H](NC(=O)OC)C(C)C)[nH]4)cc3)cc2)[nH]1)C(C)C [Compound 37] | 15000 | 30 | 114 | 700 |
| COC(=O)N[C@H](C(=O)N1CC2(CC2)C[C@H]1c1nc2ccc3cc(-c4ccc5c(ccc6nc([C@@H]7C[C@@]8(CCCOC8)CN7C(=O)[C@@H](NC(=O)OC)C(C)C)[nH]c65)c4)ccc3c2[nH]1)C(C)C [Compound 7] | 1000 | 20 | 2.5 | 300 |
| COC(=O)N[C@H](C(=O)N1C[C@]2(CCCOC2)C[C@H]1c1ncc(-c2ccc(-c3ccc(-c4cnc([C@@H]5C[C@@H]6CCCC[C@@H]6N5C(=O)[C@@H](NC(=O)OC)C(C)C)[nH]4)cc3)cc2)[nH]1)C(C)C [Compound 32] | 7000 | 50 | 24.1 | 2000 |
| COC(=O)N[C@H](C(=O)N1C[C@]2(CCCOC2)C[C@H]1c1ncc(-c2ccc(-c3ccc4c(ccc5nc([C@@H]6C[C@H]7C[C@H]7N6C(=O)[C@@H](NC(=O)OC)C(C)C)[nH]c54)c3)cc2)[nH]1)C(C)C [Compound 18] | 6000 | 200 | 3.3 | 2000 |
| COC(=O)N[C@H](C(=O)N1C[C@]2(CCCOC2)C[C@H]1c1nc2ccc3cc(-c4ccc(-c5cnc([C@@H]6C[C@H]7C[C@H]7N6C(=O)[C@@H](NC(=O)OC)C(C)C)[nH]5)cc4)ccc3c2[nH]1)C(C)C [Compound 5] | 2000 | 30 | 12.2 | 3000 |
| COC(=O)N[C@H](C(=O)N1C[C@]2(CCCOC2)C[C@H]1c1nc2ccc3cc(-c4ccc(-c5cnc([C@@H]6C[C@@H]7CCC[C@@H]7N6C(=O)[C@@H](NC(=O)OC)C(C)C)[nH]5)cc4)ccc3c2[nH]1)C(C)C [Compound 10] | 4000 | 40 | 5.7 | 200 |
| COC(=O)N[C@H](C(=O)N1C[C@]2(CCCOC2)C[C@H]1c1nc2ccc3cc(-c4ccc(-c5cnc([C@@H]6C[C@@H]7C[C@@H]7N6C(=O)[C@@H](NC(=O)OC)C(C)C)[nH]5)cc4)ccc3c2[nH]1)C(C)C [Compound 22] | 6000 | 100 | 9.4 | 6000 |
| COC(=O)N[C@H](C(=O)N1C[C@]2(CCCOC2)C[C@H]1c1nc2ccc3cc(-c4ccc(-c5cnc([C@@H]6C[C@@H]7CCCC[C@@H]7N6C(=O)[C@@H](NC(=O)OC)C(C)C)[nH]5)cc4)ccc3c2[nH]1)C(C)C [Compound 24] | 3000 | 20 | 7.9 | 300 |
| COC(=O)N[C@H](C(=O)N1[C@H](c2nc3ccc4cc(-c5ccc(-c6cnc([C@@H]7C[C@@]8(CCCOC8)CN7C(=O)[C@@H](NC(=O)OC)C7C[C@@H](C)O[C@H](C)C7)[nH]6)cc5)ccc4c3[nH]2)C[C@@H]2CCCC[C@@H]21)C(C)C (stereo in doubt) [Compound 38] | 200 | 2 | 12.4 | 90 |
| COC(=O)N[C@H](C(=O)N1C[C@]2(CCCOC2)C[C@H]1c1nc2ccc3cc(-c4ccc5c(ccc6nc([C@@H]7C[C@@H]8CCCC[C@@H]8N7C(=O)[C@@H](NC(=O)OC)C(C)C)[nH]c65)c4)ccc3c2[nH]1)C(C)C [Compound 23] | 1000 | 20 | 5.5 | 50 |
